Data as given in the NIST ThermoML archive (doi:10.1021/je700287u).

Experiment: xn = mol fraction of the nth substance listed
Settings: Liquid

CN(CCO)CCO [N-methyldiethanolamine] + O
Settings	mass density [kg/m3]
323.09 K, 3015 kPa, x1 = 0.1302	1027.4
323.09 K, 3997 kPa, x1 = 0.0369	1002.4
323.09 K, 4003 kPa, x1 = 0.1302	1027.8
323.09 K, 4998 kPa, x1 = 0.0369	1002.7
323.09 K, 4999 kPa, x1 = 0.1302	1028.1
323.09 K, 5998 kPa, x1 = 0.1302	1028.5
323.09 K, 6003 kPa, x1 = 0.0369	1003.1
323.09 K, 6993 kPa, x1 = 0.0369	1003.5
323.09 K, 6998 kPa, x1 = 0.1302	1028.9
323.09 K, 7994 kPa, x1 = 0.0369	1004
323.09 K, 7999 kPa, x1 = 0.1302	1029.3
323.09 K, 8996 kPa, x1 = 0.0369	1004.4
323.09 K, 8998 kPa, x1 = 0.1302	1029.7
323.09 K, 9995 kPa, x1 = 0.1302	1030.1
323.09 K, 9997 kPa, x1 = 0.0369	1004.8
323.09 K, 10986 kPa, x1 = 0.0369	1005.2
323.09 K, 10997 kPa, x1 = 0.1302	1030.4
323.09 K, 11988 kPa, x1 = 0.0369	1005.6
323.09 K, 11998 kPa, x1 = 0.1302	1030.8
323.09 K, 12997 kPa, x1 = 0.0369	1006
323.09 K, 13005 kPa, x1 = 0.1302	1031.2
323.09 K, 13999 kPa, x1 = 0.0369	1006.4
323.09 K, 14003 kPa, x1 = 0.1302	1031.6
323.09 K, 14989 kPa, x1 = 0.0369	1006.8
323.09 K, 14990 kPa, x1 = 0.1302	1032
323.09 K, 15996 kPa, x1 = 0.1302	1032.3
323.09 K, 16002 kPa, x1 = 0.0369	1007.1
323.09 K, 16988 kPa, x1 = 0.0369	1007.6
323.09 K, 16999 kPa, x1 = 0.1302	1032.7
323.09 K, 17990 kPa, x1 = 0.0369	1007.9
323.09 K, 17996 kPa, x1 = 0.1302	1033.1
323.09 K, 18988 kPa, x1 = 0.1302	1033.4
323.09 K, 18996 kPa, x1 = 0.0369	1008.3
323.09 K, 19995 kPa, x1 = 0.0369	1008.7
323.09 K, 20004 kPa, x1 = 0.1302	1033.8
323.1 K, 1009 kPa, x1 = 0.0893	1019.6
323.1 K, 2006 kPa, x1 = 0.0893	1020
323.1 K, 3012 kPa, x1 = 0.0893	1020.4
323.1 K, 4011 kPa, x1 = 0.0893	1020.8
323.1 K, 5002 kPa, x1 = 0.0893	1021.2
323.1 K, 5996 kPa, x1 = 0.0893	1021.6
323.1 K, 7006 kPa, x1 = 0.0893	1022
323.1 K, 8004 kPa, x1 = 0.0893	1022.3
323.1 K, 8991 kPa, x1 = 0.0893	1022.7
323.1 K, 9999 kPa, x1 = 0.0893	1023.1
323.1 K, 10993 kPa, x1 = 0.0893	1023.5
323.1 K, 11992 kPa, x1 = 0.0893	1023.8
323.1 K, 13001 kPa, x1 = 0.0893	1024.2
323.1 K, 13990 kPa, x1 = 0.0893	1024.6
323.1 K, 14980 kPa, x1 = 0.0893	1025
323.1 K, 16002 kPa, x1 = 0.0893	1025.3
323.1 K, 16990 kPa, x1 = 0.0893	1025.7
323.1 K, 17994 kPa, x1 = 0.0893	1026.1
323.1 K, 18999 kPa, x1 = 0.0893	1026.5
323.1 K, 20002 kPa, x1 = 0.0893	1026.8
333.03 K, 1009 kPa, x1 = 0.1302	1019.4
333.03 K, 1015 kPa, x1 = 0.0607	1006.4
333.03 K, 1998 kPa, x1 = 0.0607	1006.8
333.03 K, 2002 kPa, x1 = 0.1302	1019.8
333.03 K, 2997 kPa, x1 = 0.1302	1020.2
333.03 K, 3013 kPa, x1 = 0.0607	1007.2
333.03 K, 3993 kPa, x1 = 0.1302	1020.6
333.03 K, 4037 kPa, x1 = 0.0607	1007.6
333.03 K, 4997 kPa, x1 = 0.1302	1021
333.03 K, 5116 kPa, x1 = 0.0607	1008.1
333.03 K, 6002 kPa, x1 = 0.1302	1021.4
333.03 K, 6004 kPa, x1 = 0.0607	1008.4
333.03 K, 6992 kPa, x1 = 0.0607	1008.8
333.03 K, 6992 kPa, x1 = 0.1302	1021.8
333.03 K, 8003 kPa, x1 = 0.0607	1009.1
333.03 K, 8013 kPa, x1 = 0.1302	1022.2
333.03 K, 8975 kPa, x1 = 0.0607	1009.6
333.03 K, 9016 kPa, x1 = 0.1302	1022.6
333.03 K, 9983 kPa, x1 = 0.0607	1009.9
333.03 K, 9993 kPa, x1 = 0.1302	1023
333.03 K, 10989 kPa, x1 = 0.1302	1023.4
333.03 K, 11029 kPa, x1 = 0.0607	1010.4
333.03 K, 12007 kPa, x1 = 0.1302	1023.8
333.03 K, 12015 kPa, x1 = 0.0607	1010.7
333.03 K, 13003 kPa, x1 = 0.1302	1024.1
333.03 K, 13028 kPa, x1 = 0.0607	1011.1
333.03 K, 13995 kPa, x1 = 0.1302	1024.5
333.03 K, 14020 kPa, x1 = 0.0607	1011.5
333.03 K, 15011 kPa, x1 = 0.1302	1024.9
333.03 K, 15022 kPa, x1 = 0.0607	1011.9
333.03 K, 15996 kPa, x1 = 0.1302	1025.3
333.03 K, 16006 kPa, x1 = 0.0607	1012.3
333.03 K, 16996 kPa, x1 = 0.0607	1012.7
333.03 K, 17011 kPa, x1 = 0.1302	1025.7
333.03 K, 17985 kPa, x1 = 0.1302	1026.1
333.03 K, 18013 kPa, x1 = 0.0607	1013.1
333.03 K, 18991 kPa, x1 = 0.1302	1026.4
333.03 K, 19018 kPa, x1 = 0.0607	1013.4
333.03 K, 19965 kPa, x1 = 0.0607	1013.8
333.03 K, 19993 kPa, x1 = 0.1302	1026.8
333.04 K, 1012 kPa, x1 = 0.0369	995.9
333.04 K, 1999 kPa, x1 = 0.0369	996.3
333.04 K, 2995 kPa, x1 = 0.0369	996.7
333.04 K, 4008 kPa, x1 = 0.0369	997.2
333.04 K, 4992 kPa, x1 = 0.0369	997.6
333.04 K, 5983 kPa, x1 = 0.0369	998
333.04 K, 6994 kPa, x1 = 0.0369	998.4
333.04 K, 7997 kPa, x1 = 0.0369	998.8
333.04 K, 8994 kPa, x1 = 0.0369	999.2
333.04 K, 9994 kPa, x1 = 0.0369	999.6
